Laboratory results as given in patent US6512000B1, “Aminocarbonyl-substituted benzimidazoles having tryptase-inhibitory activity” (Boehringer Ingelheim Pharma KG, priority 1999, dated 2003).

biological target: T1, rh beta tryptase (Homo sapiens, UniProt P20231); assay: Tryptase inhibition test (cleavage of N-p-tosyl-Gly-Pro-Lys-para-nitroaniline, p-nitroaniline measured at 405 nm); type: biochemical; details: concentration at which 50% of the tryptase enzyme activity is inhibited; substrate 0.6 mM, pH 7.4, 37° C.
T1 construct: purchased Promega
T1 sequence (P20231 31-275): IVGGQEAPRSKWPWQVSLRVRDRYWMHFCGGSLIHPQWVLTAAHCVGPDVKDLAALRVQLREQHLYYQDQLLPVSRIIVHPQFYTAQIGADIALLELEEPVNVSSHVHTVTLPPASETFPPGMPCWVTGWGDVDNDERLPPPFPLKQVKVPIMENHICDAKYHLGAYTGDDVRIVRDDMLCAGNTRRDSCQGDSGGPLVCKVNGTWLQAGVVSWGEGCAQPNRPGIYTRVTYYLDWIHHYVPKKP
Method: The compounds according to the invention are characterised by their tryptase-inhibiting activity. This ability to inhibit tryptase was investigated using the test described below.
The measurement is carried out in Tris HCl buffer (100 mM), which additionally contains calcium (5 mM) and heparin ([…]), at pH 7.4. The standard used is rh beta tryptase which may be obtained commercially from Promega, for example. The substrate used is N-p-tosyl-Gly-Pro-Lys-para-nitroaniline in a concentration of 0.6 mM. The substrate is digested with tryptase to form p-nitroaniline which can be measured at 405 nm. Usually, an incubation period of 5 minutes and an incubation temperature of 37° C. are chosen. The enzyme activity used is 0.91 U/ml. The measurements are carried out in an Autoanalyser (Cobas Bio) made by Hofmann LaRoche. The potential inhibitory substances are used in concentrations of 10 μM in the screening, the inhibition of the tryptase being given in percent. The IC50 is determined at over 70% inhibition (concentration at which 50% of the enzyme activity is inhibited). After 5 minutes' pre-incubation of the potential inhibitory substances, the substrate is added to start the reaction, the formation of p-nitroaniline being taken as a measurement of the enzyme activity after 5 minutes, after testing the linearity.
The data obtained after the above test has been carried out (% inhibition) are assembled in Table 25 for the compounds according to the invention. The IC50 values obtained for the compounds according to the invention can be found in Table 26.
Table 26 contains the IC50 binding values obtained for the compounds according to the invention. These were measured as described above.

Row | IC50 | Structure (SMILES)
1 | 118 nM | Cc1cccc(N2CCN(C(=O)c3ccc4c(c3)nc(CCc3ccc(C(=N)N)cc3)n4C)CC2)c1 [Example 47, 2-[2-(4-Amidinophenyl)-ethyl]-1-methyl-benzimidazol-5-yl-carboxylic Acid-[N′-(3-methylphenyl)-piperazide]]
2 | 147 nM | CCOc1cccc(N2CCN(C(=O)c3ccc4c(c3)nc(CCc3ccc(C(=N)N)cc3)n4C)CC2)c1 [Example 48, 2-[2-(4-Amidinophenyl)-ethyl]-1-methyl-benzimidazol-5-yl-carboxylic Acid-[N′-(3-ethoxyphenyl)-piperazide]]
3 | 152 nM | CC(C)Oc1cccc(N2CCN(C(=O)c3ccc4c(c3)nc(CCc3ccc(C(=N)N)cc3)n4C)CC2)c1 [Example 49, 2-[2-(4-Amidinophenyl)-ethyl]-1-methyl-benzimidazol-5-yl-carboxylic Acid-[N ′-(3-isopropyloxyphenyl)-piperazide]]
4 | 176 nM | Cn1c(CCc2ccc(C(=N)N)cc2)nc2cc(C(=O)N3CCN(C4CCCC4)CC3)ccc21 [Example 50, 2-[2-(4-Amidinophenyl)-ethyl]-1-methyl-benzimidazol-5-yl-carboxylic Acid-[N′-(cyclopentyl)-piperazide]]
5 | 231 nM | Cc1ccccc1N1CCN(C(=O)c2ccc3c(c2)nc(CCc2ccc(C(=N)N)cc2)n3C)CC1 [Example 51, 2-[2-(4-Amidinophenyl)-ethyl]-1-methyl-benzimidazol-5-yl-carboxylic Acid-[N′-(2-methylphenyl)-piperazide]]
6 | 231 nM | Cn1c(CCc2ccc(C(=N)N)cc2)nc2cc(C(=O)N3CCN(c4ccccn4)CC3)ccc21 [Example 52, 2-[2-(4-Amidinophenyl)-ethyl]-1-methyl-benzimidazol-5-yl-carboxylic Acid-[N′-(2-pyridyl)-piperazide]]
7 | 241 nM | COc1ccccc1N1CCN(C(=O)c2ccc3c(c2)nc(CCc2ccc(C(=N)N)cc2)n3C)CC1 [Example 53, 2-[2-(4-Amidinophenyl)-ethyl]-1-methyl-benzimidazol-5-yl-carboxylic Acid-[N′-(2-methoxyphenyl)-piperazide]]
8 | 305 nM | CCOc1ccccc1N1CCN(C(=O)c2ccc3c(c2)nc(CCc2ccc(C(=N)N)cc2)n3C)CC1 [Example 54, 2-[2-(4-Amidinophenyl)-ethyl]-1-methyl-benzimidazol-5-yl-carboxylic Acid-[N′-(2-ethoxyphenyl)-piperazide]]
9 | 346 nM | Cn1c(CCc2ccc(C(=N)N)cc2)nc2cc(C(=O)N3CCN(Cc4ccccc4)CC3)ccc21 [Example 55, 2-[2-(4-Amidinophenyl)-ethyl]-1-methyl-benzimidazol-5-yl-carboxylic Acid-[N′-benzyl-piperazide]]
10 | 422 nM | CCOCCCn1c(CCc2ccc(C(=N)N)cc2)nc2cc(C(=O)N(Cc3ccc(CN)cc3)Cc3cccc(OC)c3)ccc21 [Example 70, 2-[2-(4-amidinophenyl)ethyl]-1-(3-ethoxy-propyl)-benzimidazol-5-yl-carboxylic acid-N-[4-(amino-methyl)-benzyl]-N-(3-methoxybenzyl)-amide]
11 | 135 nM | CCCCN(Cc1ccc(CN)cc1)C(=O)c1ccc2c(c1)nc(CCc1ccc(C(=N)N)cc1)n2CCCOCC [Example 86, 2-[2-(4-amidinophenyl)ethyl]-1-(3-ethoxypropyl)-benzimidazol-5-yl-carboxylic acid-N-[4-(amino-methyl)-benzyl]-N-n-butyl-amide]

same assay, conditions: inhibition of rh beta tryptase at 10 μM test substance; substrate N-p-tosyl-Gly-Pro-Lys-para-nitroaniline 0.6 mM, pH 7.4, 37° C., 5 minutes

Row | inhibition at 10 µM | % Inhibition (10 μM) | Structure (SMILES)
12 | 63% |  | CCOCCCn1c(CCc2ccc(C(=N)N)cc2)nc2cc(C(=O)N(Cc3ccc(CN)cc3)Cc3cccc(OC)c3)ccc21 [Example 70, 2-[2-(4-amidinophenyl)ethyl]-1-(3-ethoxy-propyl)-benzimidazol-5-yl-carboxylic acid-N-[4-(amino-methyl)-benzyl]-N-(3-methoxybenzyl)-amide]
13 | 58% |  | CCCCN(CCCC)CCCn1c(CCc2ccc(C(=N)N)cc2)nc2cc(C(=O)N(Cc3ccc(CN)cc3)Cc3cccc(OC)c3)ccc21 [Example 71, 2-[2-(4-amidinophenyl)ethyl]-1-(3-di-n-butylaminopropyl)-benzimidazol-5-yl-carboxylic acid-N-[4-(amino-methyl)-benzyl]-N-(3-methoxybenzyl)-amide]
14 | 69% |  | COc1cccc(CN(Cc2ccc(CN)cc2)C(=O)c2ccc3c(c2)nc(CCc2ccc(C(=N)N)cc2)n3CCCNC(=O)Cc2ccccc2)c1 [Example 72, 2-[2-(4-amidinophenyl)ethyl]-1-[3-(benzylcarbonylamino)-propyl]-benzimidazol-5-yl-carboxylic acid-N-[4-(amino-methyl)-benzyl]-N-(3-methoxybenzyl)-amide]
15 | 66% |  | COc1cccc(CN(Cc2ccc(CN)cc2)C(=O)c2ccc3c(c2)nc(CCc2ccc(C(=N)N)cc2)n3CC2CC2)c1 [Example 74, 2-[2-(4-amidinophenyl)ethyl]-1-cyclopropylmethyl-benzimidazol-5-yl-carboxylic acid-N-[4-(amino-methyl)-benzyl]-N-(3-methoxybenzyl)-amide]
16 | 60% |  | COc1cccc(CN(Cc2ccc(CN)cc2)C(=O)c2ccc3c(c2)nc(CCc2ccc(C(=N)N)cc2)n3CCc2ccccc2)c1 [Example 75, 2-[2-(4-amidinophenyl)ethyl]-1-(2-phenyl-ethyl)-benzimidazol-5-yl-carboxylic acid-N-[4-(amino-methyl)-benzyl]-N-(3-methoxybenzyl)-amide]
17 | 58% |  | COc1cccc(CN(Cc2ccc(CN)cc2)C(=O)c2ccc3c(c2)nc(CCc2ccc(C(=N)N)cc2)n3CCc2ccc(Cl)cc2)c1 [Example 76, 2-[2-(4-amidinophenyl)ethyl]-1-[2-(4-chlorophenyl)ethyl]-benzimidazol-5-yl-carboxylic acid-N-[4-(amino-methyl)-benzyl]-N-(3-methoxybenzyl)-amide]
18 | 53% |  | COc1cccc(CN(Cc2ccc(CN)cc2)C(=O)c2ccc3c(c2)nc(CCc2ccc(C(=N)N)cc2)n3CCCN2CCN(c3ccccc3C)CC2)c1 [Example 80, 2-[2-(4-amidinophenyl)ethyl]-1-{3-[4-(2-methylphenyl)-piperazin-1-yl]-propyl}-benzimidazol-5-yl-carboxylic acid-N-[4-(amino-methyl)-benzyl]-N-(3-methoxybenzyl)-amide]
19 | 69% |  | COc1cccc(CN(Cc2ccc(CN)cc2)C(=O)c2ccc3c(c2)nc(CCc2ccc(C(=N)N)cc2)n3CCCN2CCOCC2)c1 [Example 81, 2-[2-(4-amidinophenyl)ethyl]-1-[3-(morpholin-4-yl)-propyl]-benzimidazol-5-yl-carboxylic acid-N-[4-(amino-methyl)-benzyl]-N-(3-methoxybenzyl)-amide]
20 | 61% |  | COc1cccc(CN(Cc2ccc(CN)cc2)C(=O)c2ccc3c(c2)nc(CCc2ccc(C(=N)N)cc2)n3CC2CCCO2)c1 (stereo not shown) [Example 82, 2-[2-(4-amidinophenyl)ethyl]-1-(tetrahydrofuran-2-yl-methyl)-benzimidazol-5-yl-carboxylic acid-N-[4-(amino-methyl)-benzyl]-N-(3-methoxybenzyl)-amide]
21 | 72% |  | CCCCN(Cc1ccc(CN)cc1)C(=O)c1ccc2c(c1)nc(CCc1ccc(C(=N)N)cc1)n2CCCOCC [Example 86, 2-[2-(4-amidinophenyl)ethyl]-1-(3-ethoxypropyl)-benzimidazol-5-yl-carboxylic acid-N-[4-(amino-methyl)-benzyl]-N-n-butyl-amide]
22 | 59% |  | CCCCN(CCCC)CCCn1c(CCc2ccc(C(=N)N)cc2)nc2cc(C(=O)N(CCCC)Cc3ccc(CN)cc3)ccc21 [Example 87, 2-[2-(4-amidinophenyl)ethyl]-1-(3-di-n-butylaminopropyl)-benzimidazol-5-yl-carboxylic acid-N-[4-(amino-methyl)-benzyl]-N-n-butyl-amide]
23 |  | 70% | CCCCN(Cc1ccc(CN)cc1)C(=O)c1ccc2c(c1)nc(CCc1ccc(C(=N)N)cc1)n2CCCNC(=O)Cc1ccccc1 [Example 88]
24 | 67% |  | CCCCN(Cc1ccc(CN)cc1)C(=O)c1ccc2c(c1)nc(CCc1ccc(C(=N)N)cc1)n2CC1CC1 [Example 90, 2-[2-(4-amidinophenyl)ethyl]-1-cyclopropylmethyl-benzimidazol-5-yl-carboxylic acid-N-[4-(amino-methyl)-benzyl]-N-n-butyl-amide]
25 | 62% |  | CCCCN(Cc1ccc(CN)cc1)C(=O)c1ccc2c(c1)nc(CCc1ccc(C(=N)N)cc1)n2CCc1ccccc1 [Example 91, 2-[2-(4-amidinophenyl)ethyl]-1-(2-phenylethyl)-benzimidazol-5-yl-carboxylic acid-N-[4-(amino-methyl)-benzyl]-N-n-butyl-amide]
26 | 56% |  | CCCCN(Cc1ccc(CN)cc1)C(=O)c1ccc2c(c1)nc(CCc1ccc(C(=N)N)cc1)n2Cc1ccc(C)cc1 [Example 93, 2-[2-(4-amidinophenyl)ethyl]-1-(4-methylbenzyl)-benzimidazol-5-yl-carboxylic acid-N-[4-(amino-methyl)-benzyl]-N-n-butyl-amide]
27 | 55% |  | CCCCN(Cc1ccc(CN)cc1)C(=O)c1ccc2c(c1)nc(CCc1ccc(C(=N)N)cc1)n2CCCN1CCN(c2ccccc2C)CC1 [Example 96, 2-[2-(4-amidinophenyl)ethyl]-1-{3-[4-(2-methylphenyl)-piperazin-1-yl]-propyl}-benzimidazol-5-yl-carboxylic acid-N-[4-(amino-methyl)-benzyl]-N-n-butyl-amide]
28 | 56% |  | CCCCN(Cc1ccc(CN)cc1)C(=O)c1ccc2c(c1)nc(CCc1ccc(C(=N)N)cc1)n2CCCN1CCOCC1 [Example 97, 2-[2-(4-amidinophenyl)ethyl]-1-[3-(morpholin-4-yl)-propyl]-benzimidazol-5-yl-carboxylic acid-N-[4-(amino-methyl)-benzyl]-N-n-butyl-amide]
